Reference: ChEMBL document CHEMBL4043088, “Design of novel HIV-1 protease inhibitors incorporating isophthalamide-derived P2-P3 ligands: Synthesis, biological evaluation and X-ray structural studies of inhibitor-HIV-1 protease complex” (Bioorg Med Chem, 2017)

Tests used:
[1] = Inhibition of HIV1 protease using fluorogenic substrate by continuous fluorometric assay; design: species or system Human immunodeficiency virus 1
[2] = test system: Human immunodeficiency virus 1; assay: Antiviral activity against HIV1 LAI infected in human MT2 cells assessed as reduction in p24 Gag protein production incubated for 6 days by automated chemiluminescent enzyme immunoassay; type: functional, cell-based; conditions: Human immunodeficiency virus 1, LAI, MT2, 144 h

COc1ccc(S(=O)(=O)N(CC(C)C)C[C@@H](O)[C@H](Cc2ccccc2)NC(=O)c2cccc(C(=O)N(C)Cc3nc(C)oc3C)c2)cc1
Ki [1]: 0.21 nM | IC50 [2]: 31 nM

COc1ccc(S(=O)(=O)N(CC(C)C)C[C@@H](O)[C@H](Cc2ccccc2)NC(=O)c2cccc(C(=O)N(C)Cc3nc(C)co3)c2)cc1
Ki [1]: 0.63 nM | IC50 [2]: 581 nM

CNc1cc(C(=O)N[C@@H](Cc2ccccc2)[C@H](O)CN(CC(C)C)S(=O)(=O)c2ccc(OC)cc2)cc(C(=O)N(C)Cc2nc(C)oc2C)c1
Ki [1]: 5.08 nM | IC50 [2]: 600 nM

COc1ccc(S(=O)(=O)N(CC(C)C)C[C@@H](O)[C@H](Cc2ccccc2)NC(=O)c2ccc(C(=O)N(C)Cc3nc(C)oc3C)cc2)cc1
Ki [1]: 70 nM | IC50 [2]: > 1000 nM

COc1ccc(S(=O)(=O)N(CC(C)C)C[C@@H](O)[C@H](Cc2ccccc2)NC(=O)c2cccc(C(=O)N(C)Cc3csc(C)n3)c2)cc1
Ki [1]: 0.107 nM | IC50 [2]: 32 nM

COc1ccc(S(=O)(=O)N(CC(C)C)C[C@@H](O)[C@H](Cc2ccccc2)NC(=O)c2ccccc2C(=O)N(C)Cc2nc(C)oc2C)cc1
Ki [1]: 629 nM | IC50 [2]: > 1000 nM

COc1ccc(S(=O)(=O)N(CC(C)C)C[C@@H](O)[C@H](Cc2ccccc2)NC(=O)c2cccc(C(=O)N3CCC[C@H]3c3nc(C)cs3)c2)cc1
Ki [1]: 30.8 nM | IC50 [2]: > 1000 nM

COc1ccc(S(=O)(=O)N(CC(C)C)C[C@@H](O)[C@H](Cc2ccccc2)NC(=O)c2cccc(C(=O)N3CCC[C@@H]3c3nc(C)cs3)c2)cc1
Ki [1]: 0.025 nM | IC50 [2]: 69 nM

Cc1csc([C@H]2CCCN2C(=O)c2cccc(C(=O)N[C@@H](Cc3ccccc3)[C@H](O)CN(CC(C)C)S(=O)(=O)c3ccc(CO)cc3)c2)n1
Ki [1]: 0.79 nM | IC50 [2]: 164 nM

COc1ccc(S(=O)(=O)N(CC(C)C)C[C@@H](O)[C@H](Cc2ccccc2)NC(=O)c2cncc(C(=O)N3CCC[C@@H]3c3nc(C)cs3)c2)cc1
Ki [1]: 2.5 nM

COc1ccc(S(=O)(=O)N(CC(C)C)C[C@@H](O)[C@H](Cc2ccccc2)NC(=O)c2cccc(C(=O)N(C)Cc3coc(C)n3)c2)cc1
Ki [1]: 0.64 nM | IC50 [2]: 23 nM

COc1ccc(S(=O)(=O)N(CC(C)C)C[C@@H](O)[C@H](Cc2ccccc2)NC(=O)c2cccc(C(=O)N3CCCC[C@@H]3c3nc(C)cs3)c2)cc1
Ki [1]: 0.53 nM | IC50 [2]: 221 nM

COc1ccc(S(=O)(=O)N(CC(C)C)C[C@@H](O)[C@H](Cc2ccccc2)NC(=O)c2cccc(C(=O)N3CC[C@H](c4nc(C)cs4)C3)c2)cc1
Ki [1]: 0.4 nM | IC50 [2]: 109 nM

COCc1coc([C@H]2CCCN2C(=O)c2cccc(C(=O)N[C@@H](Cc3ccccc3)[C@H](O)CN(CC(C)C)S(=O)(=O)c3ccc(OC)cc3)c2)n1
Ki [1]: 0.8 nM | IC50 [2]: 327 nM

Cc1csc([C@H]2CCCN2C(=O)c2cccc(C(=O)N[C@@H](Cc3ccccc3)[C@H](O)CN(CC(C)C)S(=O)(=O)c3ccc(N)cc3)c2)n1
Ki [1]: 1.61 nM | IC50 [2]: 189 nM

COc1ccc(S(=O)(=O)N(CC(C)C)C[C@@H](O)[C@H](Cc2ccccc2)NC(=O)c2cccc(CN3CCC[C@@H]3c3nc(C)cs3)c2)cc1
Ki [1]: 23.6 nM

COc1ccc(S(=O)(=O)N(CC(C)C)C[C@@H](O)[C@H](Cc2ccccc2)NC(=O)c2cccc(C(=O)N3CSC[C@@H]3c3nc(C)cs3)c2)cc1
Ki [1]: 0.76 nM | IC50 [2]: 32 nM

COc1ccc(S(=O)(=O)N(CC(C)C)C[C@@H](O)[C@H](Cc2ccccc2)NC(=O)c2cc(O)cc(C(=O)N(C)Cc3nc(C)oc3C)c2)cc1
Ki [1]: 0.51 nM | IC50 [2]: 290 nM

COc1ccc(S(=O)(=O)N(CC(C)C)C[C@@H](O)[C@H](Cc2ccccc2)NC(=O)c2cccc(C(=O)N3CC[C@@H](c4nc(C)cs4)C3)c2)cc1
Ki [1]: 0.49 nM | IC50 [2]: 280 nM

COc1ccc(S(=O)(=O)N(CC(C)C)C[C@@H](O)[C@H](Cc2ccccc2)NC(=O)c2cccc(C(=O)N3CCC[C@@H]3c3nc(C)co3)c2)cc1
Ki [1]: 0.41 nM | IC50 [2]: 33 nM
